Measurements: US11103528B1, “Slow release calcium composition” (Government of the United States, as represented by the …, priority 2019, dated 2021)

System: retinal pigmented epithelium (RPE) wild-type (WT) cells
Assay: Effect of calcium and red-light irradiation on NO levels (DAF-FM DA integrated fluorescence)
Assay type: cell-based
Procedure: In this experiment, the influence of Ca^2+ on nitric oxide (NO) levels was determined by measuring the integrated fluorescence of the reaction product of NO with diaminofluorescein-FM diacetate (DAF-FM DA, C25H18F2N2O7).
Procedurally, the experiment was carried out using a 96 well plate, with either ionic calcium (Ca^2+) or encapsulated calcium (CaCD) added to each of the wells. The concentration of calcium in the wells as CaCl2 was 1.67 mM, and the concentration as CaCD was 2.79 mM stock (or 5 μM final concentration), in a total volume of 300 μL in each well. The number of RPE-WT cells was approximately 175,000 per well. Two reference samples for CaCl2 and CaCD were used to compare relative changes upon exposure to red-light in the presence of Ca^2+. The RPE cells were incubated with DAF-FM DA for 30 minutes at 37 degrees C. and the fluorescence was immediately measured (as time-point 0 minutes) to obtain a ‘background’ baseline.

[Ca+2].[Cl-].[Cl-] [Ca, CaCl2]
Intensity (integrated fluorescence of DAF-FM DA, NO level) (WT in PBS + Ca (no red light), Time 9.09 (minutes)): 85.40
Intensity (integrated fluorescence of DAF-FM DA, NO level) (WT in PBS + Ca (no red light), Time 28.63 (minutes)): 92.76
Intensity (integrated fluorescence of DAF-FM DA, NO level) (WT in PBS + Ca (no red light), Time 75.14 (minutes)): 100.20
Intensity (integrated fluorescence of DAF-FM DA, NO level) (WT in PBS + Ca (no red light), Time 307.24 (minutes)): 191.01
Intensity (integrated fluorescence of DAF-FM DA, NO level) (WT in PBS + Ca (no red light), Time 319.44 (minutes)): 198.35
Intensity (integrated fluorescence of DAF-FM DA, NO level) (WT in PBS + Ca (no red light), Time 431.58 (minutes)): 271.80
Intensity (integrated fluorescence of DAF-FM DA, NO level) (WT in PBS + Ca (no red light), Time 460.95 (minutes)): 276.75
Intensity (integrated fluorescence of DAF-FM DA, NO level) (WT in PBS + Ca (no red light), Time 770.49 (minutes)): 489.70
Intensity (integrated fluorescence of DAF-FM DA, NO level) (WT in PBS + Ca (no red light), Time 799.74 (minutes)): 509.28
Intensity (integrated fluorescence of DAF-FM DA, NO level) (WT in PBS + Ca + RL15, Time 9.09 (minutes)): 85.40
Intensity (integrated fluorescence of DAF-FM DA, NO level) (WT in PBS + Ca + RL15, Time 28.61 (minutes)): 95.20
Intensity (integrated fluorescence of DAF-FM DA, NO level) (WT in PBS + Ca + RL15, Time 70.2 (minutes)): 105.06
Intensity (integrated fluorescence of DAF-FM DA, NO level) (WT in PBS + Ca + RL15, Time 307.22 (minutes)): 193.44
Intensity (integrated fluorescence of DAF-FM DA, NO level) (WT in PBS + Ca + RL15, Time 316.95 (minutes)): 203.22
Intensity (integrated fluorescence of DAF-FM DA, NO level) (WT in PBS + Ca + RL15, Time 428.93 (minutes)): 296.18
Intensity (integrated fluorescence of DAF-FM DA, NO level) (WT in PBS + Ca + RL15, Time 460.74 (minutes)): 303.57
Intensity (integrated fluorescence of DAF-FM DA, NO level) (WT in PBS + Ca + RL15, Time 765.45 (minutes)): 506.76
Intensity (integrated fluorescence of DAF-FM DA, NO level) (WT in PBS + Ca + RL15, Time 799.54 (minutes)): 533.67
Intensity (integrated fluorescence of DAF-FM DA, NO level) (WT in PBS + Ca + RL30, Time 11.6 (minutes)): 68.33
Intensity (integrated fluorescence of DAF-FM DA, NO level) (WT in PBS + Ca + RL30, Time 33.6 (minutes)): 75.70
Intensity (integrated fluorescence of DAF-FM DA, NO level) (WT in PBS + Ca + RL30, Time 72.9 (minutes)): 73.36
Intensity (integrated fluorescence of DAF-FM DA, NO level) (WT in PBS + Ca + RL30, Time 308 (minutes)): 83.69
Intensity (integrated fluorescence of DAF-FM DA, NO level) (WT in PBS + Ca + RL30, Time 320.3 (minutes)): 86.16
Intensity (integrated fluorescence of DAF-FM DA, NO level) (WT in PBS + Ca + RL30, Time 427 (minutes)): 237.64
Intensity (integrated fluorescence of DAF-FM DA, NO level) (WT in PBS + Ca + RL30, Time 466 (minutes)): 240.17
Intensity (integrated fluorescence of DAF-FM DA, NO level) (WT in PBS + Ca + RL30, Time 770.9 (minutes)): 462.87
Intensity (integrated fluorescence of DAF-FM DA, NO level) (WT in PBS + Ca + RL30, Time 799.9 (minutes)): 494.65
Intensity (integrated fluorescence of DAF-FM DA, NO level) (WT in PBS + Ca + RL60, Time 11.52 (minutes)): 87.84
Intensity (integrated fluorescence of DAF-FM DA, NO level) (WT in PBS + Ca + RL60, Time 33.54 (minutes)): 92.78
Intensity (integrated fluorescence of DAF-FM DA, NO level) (WT in PBS + Ca + RL60, Time 72.65 (minutes)): 105.07
Intensity (integrated fluorescence of DAF-FM DA, NO level) (WT in PBS + Ca + RL60, Time 307.26 (minutes)): 188.57
Intensity (integrated fluorescence of DAF-FM DA, NO level) (WT in PBS + Ca + RL60, Time 319.42 (minutes)): 200.79
Intensity (integrated fluorescence of DAF-FM DA, NO level) (WT in PBS + Ca + RL60, Time 429.53 (minutes)): 223.01
Intensity (integrated fluorescence of DAF-FM DA, NO level) (WT in PBS + Ca + RL60, Time 463.82 (minutes)): 225.53
Intensity (integrated fluorescence of DAF-FM DA, NO level) (WT in PBS + Ca + RL60, Time 768.4 (minutes)): 445.79
Intensity (integrated fluorescence of DAF-FM DA, NO level) (WT in PBS + Ca + RL60, Time 799.9 (minutes)): 480.01
DAF-FM DA NO profile (ionic calcium wells, over the entire 800 minutes): continued to increase
